Laboratory results reported in ChEMBL document CHEMBL1268904, “Potent and selective HIV-1 ribonuclease H inhibitors based on a 1-hydroxy-1,8-naphthyridin-2(1H)-one scaffold” (Bioorg Med Chem Lett, 2010).

How the values were obtained:
[1] = system: Human immunodeficiency virus 1; experiment: Antiviral activity against HIV1 HXB2 infected in human HeLaP4-2 cells assessed as inhibition of single-cycle viral replication; format: functional, organism-based; settings: Human immunodeficiency virus 1, HXB2, HeLaP4-2
[2] = Lipophilicity, log P of the compound; format: physicochemical; settings: octanol/water
[3] = Cytotoxicity against human HeLaP4-2 cells up to 50 uM by alamar blue assay; format: cell-based
[4] = biological target: Human immunodeficiency virus type 1 reverse transcriptase (Human immunodeficiency virus 1, UniProt Q72547); experiment: Inhibition of wild type HIV1 reverse transcriptase RNasH activity
[5] = biological target: Human immunodeficiency virus type 1 integrase (Human immunodeficiency virus 1, UniProt Q7ZJM1); experiment: Inhibition of HIV1 integrase strand transfer activity
Sequence of Human immunodeficiency virus type 1 integrase (Q7ZJM1 whole entry): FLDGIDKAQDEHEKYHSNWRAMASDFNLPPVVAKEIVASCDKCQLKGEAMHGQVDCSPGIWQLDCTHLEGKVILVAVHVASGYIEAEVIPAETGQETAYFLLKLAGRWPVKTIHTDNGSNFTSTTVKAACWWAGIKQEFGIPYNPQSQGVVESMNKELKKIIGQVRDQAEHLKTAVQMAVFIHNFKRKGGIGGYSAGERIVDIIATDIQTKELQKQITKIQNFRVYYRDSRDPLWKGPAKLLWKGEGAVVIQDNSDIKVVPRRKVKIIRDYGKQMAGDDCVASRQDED

[6] = Cytotoxicity against human HeLaP4-2 cells by alamar blue assay; format: cell-based
[7] = Inhibition of HIV1 reverse transcriptase D443N mutant RNA-dependent DNA plymerase activity; design: species or system Human immunodeficiency virus 1
[8] = Therapeutic index, ratio of CC50 for human HeLaP4-2 cells to IC50 for HIV1 HXB2 infected in human HeLaP4-2 cells; format: cell-based; settings: HeLaP4-2 cells infected with HIV1 HXB2, read-out: Ratio CC50/IC50
[9] = system: Human immunodeficiency virus 1; experiment: Selectivity ratio of IC50 for HIV1 integrase Y143R mutant strand transfer activity to IC50 for HIV1 integrase strand transfer activity
[10] = system: Human immunodeficiency virus 1; experiment: Selectivity ratio of IC50 for HIV1 integrase Q148R mutant strand transfer activity to IC50 for HIV1 integrase strand transfer activity
[11] = system: Human immunodeficiency virus 1; experiment: Selectivity ratio of IC50 for HIV1 integrase N155H mutant strand transfer activity to IC50 for HIV1 integrase strand transfer activity
[12] = system: Human immunodeficiency virus 1; experiment: Antiviral activity against HIV1 3B infected in human MT4 cells assessed as decrease in viral p24 antigen level after 14 to 21 days; format: functional; settings: Human immunodeficiency virus 1, 3B
MT4 = experiment: Cytotoxicity against human MT4 cells at 1.5 uM; format: cell-based; settings: mt4, 1.5 µM
[13] = system: Human immunodeficiency virus 1; experiment: Selectivity ratio of IC50 for HIV1 integrase strand transfer activity to IC50 for wild type HIV1 reverse transcriptase RNasH activity
[14] = system: Human immunodeficiency virus 1; experiment: Selectivity ratio of IC50 for HIV1 reverse transcriptase D443N mutant RNA-dependent DNA plymerase activity to IC50 for wild type HIV1 reverse transcriptase RNasH activity

## CCOC(=O)c1c(O)c2cccnc2n(O)c1=O
[1]
  IC50: 2.5 µM
[2]
  logP: 2.2
[3]
  Activity: Non-toxic
[4]
  IC50: 0.11 µM

## O=c1cc(-c2cccc(-c3ccccc3)c2)c2cccnc2n1O
[5]
  IC50: 2.4 µM
[6]
  CC50: > 50 µM
[1]
  IC50: 34 µM
[7]
  IC50: 9 µM
[4]
  IC50: 0.64 µM

## NCc1ccccc1-c1cccc(-c2cc(=O)n(O)c3ncccc23)c1
[5]
  IC50: 18 µM
[6]
  CC50: 9.1 µM
[1]
  IC50: 2.8 µM
[7]
  IC50: 36 µM
[4]
  IC50: 0.67 µM
[8]
  selectivity ratio: 3

## NCc1ccc(-c2ccc(Cc3cc(=O)n(O)c4ncccc34)cc2)cc1
[5]
  IC50: 24 µM
[6]
  CC50: 3.3 µM
[9]
  Ratio IC50: 0.84
[1]
  IC50: 0.19 µM
[2]
  logP: 0.15
[10]
  Ratio IC50: 1.9
[11]
  Ratio IC50: 1.1
[12]
  IC95: 0.92 µM
[7]
  IC50: 13 µM
[4]
  IC50: 0.045 µM
MT4
  Activity: Non-toxic
[8]
  selectivity ratio: 17

## NCc1ccc(-c2cccc(Cc3cc(=O)n(O)c4ncccc34)c2)cc1
[5]
  IC50: 8.1 µM
[6]
  CC50: 4.6 µM
[1]
  IC50: 0.43 µM
[7]
  IC50: 11 µM
[4]
  IC50: 0.1 µM
[8]
  selectivity ratio: 11

## NCc1ccc(-c2cccc(-c3cc(=O)n(O)c4ncccc34)c2)cc1
[5]
  IC50: 7.8 µM
[6]
  CC50: 2.3 µM
[1]
  IC50: 0.62 µM
[7]
  IC50: 16 µM
[4]
  IC50: 0.13 µM
[8]
  selectivity ratio: 3

## O=c1ccc2cccnc2n1O
[5]
  IC50: 15 µM
[6]
  CC50: 20 µM
[1]
  IC50: 4.5 µM
[13]
  Ratio IC50: 10
[14]
  Ratio IC50: 30
[7]
  IC50: > 50 µM
[4]
  IC50: 1.4 µM
[8]
  selectivity ratio: 4

## NCc1cccc(-c2cccc(-c3cc(=O)n(O)c4ncccc34)c2)c1
[5]
  IC50: 9.1 µM
[6]
  CC50: 4.9 µM
[1]
  IC50: 0.85 µM
[7]
  IC50: 5.1 µM
[4]
  IC50: 0.15 µM
[8]
  selectivity ratio: 3
